Results: patent publication US20240016850A1, “CELL-NANOPARTICLE DRUG DELIVERY SYSTEM AND USE OF THE SAME FOR INHIBITING GROWTH OF TUMOR CELLS AND DIAGNOSING TUMOR CELLS” (priority 2022, published 2024)

Assays:
[1] = Biodistribution in vital organs with different treatment regimens (ICP-MS); type: in vivo, rat; settings: 24th hour post-administration
Description: In order to determine the differences in biodistribution of the cell-nanoparticle drug delivery system with those of gadodiamide and Gd-FPFNP in vital organs, the orthotopic GBM-bearing rats prepared in section B above were divided into 4 groups, namely, comparative groups 1 and 2 (CG1 and CG2), and experimental groups 1 and 2 (EG1 and EG2), with n=4 per each group. […] At the 24th hour post-administration, the orthotopic GBM-bearing rats in each group were sacrificed, and the blood and tissues from the heart, liver, spleen, lung, kidney, intestine, left brain and right brain were subjected to the pre-processing steps as described in section E above, and then subjected to quantification of elemental gadolinium (Gd) content by ICP-MS system as described in Item 5 of section B in Example 1. The results were expressed as percentage of administered (injected) dose per gram tissue (ID/g), calculated using the aforesaid formula (3), and shown in FIG. 16.

[2] = Gd3+ release from gadodiamide and Gd-FPFNP (dialysis, Xylenol orange); type: physicochemical; settings: 24th hour; 1.05 mM gadodiamide; PBS, 37° C.
Experimental: In order to monitor the in vitro release of gadolinium(III) ions (Gd^3+) from gadodiamide and Gd-FPFNP, a respective one of gadodiamide at concentration of 1.05 mM and Gd-FPFNP that was loaded with 1.05 mM of gadodiamide were incubated in DMEM, and then added into a dialysis tube with cellulose membrane having a molecular weight cutoff of 1 kDa, followed by immersing the dialysis tube in 10 mL of PBS and stirring at 37° C. Thereafter, 0.5 mL aliquots of the PBS were taken out at the 3rd hour and 24th hour of stirring, followed by addition of Xylenol orange agent and analysis using a UV-Vis detector conducted according to procedures described by Barge A. et al., in an article entitled “How to determine free Gd and free ligand in solution of Gd chelates. A technical note.” published in Contrast Media Mol. Imaging, 2006, Vol. 1, p. 184-188, so as to determine the amount of Gd^3+ released in vitro.

## CNC(=O)CN(CCN(CCN(CC(=O)[O-])CC(=O)NC)CC(=O)[O-])CC(=O)[O-].[Gd+3] [gadodiamide, Gadodiamide]
[1]
  elemental gadolinium in vital organs: not or hardly detected
[2]
  concentration of Gd3+ released: 38.6 µM
